# Laboratory results reported in US9868734B2, “Conjugate of benzofuranone and indole or azaindole, and preparation and uses thereof” (Luoda Biosciences, Inc., priority 2013, dated 2018).
# Read-outs that look alike come from different tables or passages of the source.
# Tests used:
# [1] = test system: human hepatocellular carcinoma cell line HepG-2; experiment: MTT assay, inhibition of tumor cell growth (HepG2); assay type: cell-based; settings: 72 hours incubation, read-out: IC50 on the tumor cells HepG2
# Experimental: (§1) human hepatocellular carcinoma cell line HepG-2, human lung adenocarcinoma epithelial cell line A549
# (§2) Tumor cells were seeded in RPM11640 medium containing 10% calf serum, incubated at 37° C., 5% CO2 in CO2 incubator, and passaged every 2-3 days. Cells at logarithmic growth phase were used for this experiment.
# (§3) The cells at logarithmic growth phase were formulated into suspension. The cell viability by trypan blue staining was more than 98%. The cell suspension was divided into several groups: 1 as blank control group (cell suspension plus solvent DMSO); and 2 as experimental groups (cell suspension plus compounds to be tested).
# (§4) The drugs were formulated into a stock solution in DMSO, and the concentration of the stock solution was 20 mmol (used within 4 hours). In the experiment, the work solution of the drugs was diluted with RPMI1640 medium containing 10% calf serum under aseptic condition, to a final concentration of […]. The drug concentrations were increased by 2 times (1.25-20 μM).
# (§5) The cells in logarithmic growth phase were selected, centrifuged, counted, and formulated into a cell suspension (2.5×10^4/ml) with RPMI1640 medium containing 10% calf serum. The cell suspension were inoculated into 96-well plates at a density of 5000 cells/200 μl per well, incubated for 24 hours at 37° C., 5% CO2. According to the above concentration of the drug, the cells were inoculated to 6 groups (including one control group), with 8 wells per group. After incubating for 72 hours, the viability of cells was measured by MTT assay. The absorbance value (A) was measured with detection wavelength at 540 nm, reference wavelength at 630 nm. The inhibitory rate (I) was calculated by the following equation, where T was the absorbance value of the experimental groups, and C was the absorbance value of the blank control group: I=(1−T/C)×100%
# (§6) Equation of regression line was drawn from concentration-inhibitory rate curve, from which the IC50 of tested sample was calculated.
# [2] = test system: human lung adenocarcinoma epithelial cell line A549; experiment: MTT assay, inhibition of tumor cell growth (A549); assay type: cell-based; settings: 72 hours incubation, read-out: IC50 on the tumor cells A549
# Experimental: as §1, §2, §3, §4, §5, §6
SMILES,IC50 [1] [µM],IC50 [2] [µM],IC50 ([1]; Homo sapiens) [µM],IC50 ([2]; Homo sapiens) [µM]
CCN1C(=O)C(=C2Oc3ccccc3C2=O)c2ccc(Cl)cc21 [Compound 6],60 ± 1.7,11.9 ± 1.4,–,–
CON=C1C(=C2C(=O)N(C(C)C)c3ccc(C)cc32)Oc2ccccc21 [Compound 55],4 ± 2.4,12 ± 1.9,–,–
CCN1C(=O)C(=C2Oc3ccccc3C2=NOC)c2ccccc21 [Compound 51],1.7 ± 0.6,3.9 ± 0.5,–,–
CC(C)N1C(=O)C(=C2Oc3ccccc3C2=O)c2cc(Cl)ccc21 [Compound 11],45 ± 1.9,8.5 ± 1.6,–,–
CCN1C(=O)C(=C2Oc3ccc(Cl)cc3C2=NO)c2cc(Cl)ccc21 [Compound 45],3.6 ± 0.2,4.8 ± 0.6,–,–
Cc1nccc2c1C(=C1Oc3ccccc3C1=O)C(=O)N2C(C)C [Compound 68],18.5 ± 1.8,14 ± 1.7,–,–
O=C1Oc2ccccc2C1=C1C(=O)N(Cc2ccccc2)c2ccncc21 [Compound 134],26 ± 2.1,11.5 ± 1.2,–,–
CON=C1C(=C2C(=O)N(Cc3ccccc3)c3ccncc32)Oc2ccccc21 [Compound 74],19 ± 1.1,9.4 ± 0.6,–,–
CCN1C(=O)C(=C2Oc3ccccc3C2=NOC)c2cccc(F)c21 [Compound 52],2.1 ± 0.2,2.8 ± 0.4,–,–
CON=C1C(=C2C(=O)N(Cc3ccccc3)c3ccc(Cl)cc32)Oc2ccccc21 [Compound 58],3.8 ± 1.5,12.1 ± 0.9,–,–
CON=C1C(=C2C(=O)N(Cc3ccccc3)c3ncccc32)Oc2ccccc21 [Compound 90],30.2 ± 1.5,29 ± 1.8,–,–
O=C1C(=C2Oc3ccccc3C2=NO)c2cc(F)ccc2N1Cc1ccccc1 [Compound 39],19 ± 2.1,33 ± 2.9,–,–
CCN1C(=O)C(=C2Oc3ccccc3C2=NOC)c2cc(F)ccc21 [Compound 59],3.7 ± 0.9,5 ± 0.9,–,–
CCN1C(=O)C(=C2Oc3ccccc3C2=O)c2cc(C)ccc21 [Compound 7],19 ± 1.6,8 ± 1.2,–,–
CCN1C(=O)C(=C2Oc3ccccc3C2=NO)c2cc(Cl)ccc21 [Compound 29],7.7 ± 1.2,3.6 ± 0.2,–,–
O=C1Nc2ccc(F)cc2C1=C1C(=O)Oc2ccccc21 [Compound 92],15.2 ± 1.2,31.7 ± 1.5,–,–
CON=C1C(=C2C(=O)N(C(C)C)c3cc(Cl)ccc32)Oc2ccc(Cl)cc21 [Compound 60],5.4 ± 0.6,29 ± 1.8,–,–
CON=C1C(=C2C(=O)N(Cc3ccccc3)c3ccc(F)cc32)Oc2ccccc21 [Compound 57],3.1 ± 0.8,6.9 ± 0.8,–,–
CCN1C(=O)C(=C2Oc3ccc(Cl)cc3C2=O)c2cc(Cl)ccc21 [Compound 21],12 ± 1.9,4 ± 2.4,–,–
O=C1Oc2ccccc2C1=C1C(=O)N(Cc2ccccc2)c2ccc(Cl)cc21 [Compound 119],27.5 ± 1.3,39.6 ± 1.7,–,–
O=C1Nc2ccccc2C1=C1Oc2ccccc2C1=NO [Compound 25],5 ± 0.9,3.7 ± 0.9,–,–

SMILES,IC50 [1] [µM],IC50 [2] [µM],IC50 ([1]; Homo sapiens) [µM],IC50 ([2]; Homo sapiens) [µM]
Cc1ccc2c(c1)C(=C1Oc3ccccc3C1=O)C(=O)N2C(C)C [Compound 13],42 ± 1.8,11 ± 1.2,–,–
"CCN1C(=O)/C(=C2\Nc3ccccc3\C2=N/O)c2ccccc21 [Compound 155, 1-ethyl-indirubin-3′-oxime, reference compound]",–,–,7 ± 1.3,30.3 ± 1.5
CCN1C(=O)C(=C2C(=O)Oc3ccccc32)c2ccccc21 [Compound 100],9.2 ± 2,7 ± 1.4,–,–
CCN1C(=O)C(=C2Oc3ccc(Cl)cc3C2=O)c2ccc(Cl)cc21 [Compound 22],7.1 ± 1.1,2.7 ± 1.2,–,–
CCN1C(=O)C(=C2C(=O)Oc3ccccc32)c2cc(F)cnc21 [Compound 146],35.2 ± 2.3,26.3 ± 2.1,–,–
CCN1C(=O)C(=C2Oc3ccccc3C2=O)c2c1ccnc2C [Compound 65],40 ± 3.1,18.5 ± 1.8,–,–
CCN1C(=O)C(=C2Oc3c(Cl)cccc3C2=O)c2cccnc21 [Compound 85],18.5 ± 1.5,25 ± 2.7,–,–
Cc1ccc2c(c1)C(=C1Oc3ccccc3C1=NO)C(=O)N2C(C)C [Compound 37],41 ± 1.7,9 ± 2.1,–,–
CCN1C(=O)C(=C2Oc3ccccc3C2=O)c2cc(F)ccc21 [Compound 18],17 ± 1.9,7.05 ± 1.1,–,–
O=C1C(=C2Oc3ccccc3C2=NO)c2ccccc2N1C1OC(CO)C(O)C1O (stereo not drawn) [Compound 33],21 ± 0.9,14.8 ± 1.2,–,–
Cc1ccc2c(c1)C(=C1Oc3ccccc3C1=NO)C(=O)N2Cc1ccccc1 [Compound 41],45 ± 3,8.3 ± 1.7,–,–
CC(C)N1C(=O)C(=C2Oc3ccccc3C2=NO)c2cccc(F)c21 [Compound 34],51.1 ± 2.6,14.1 ± 1.5,–,–
CC(C)N1C(=O)C(=C2C(=O)Oc3ccccc32)c2cnc(F)cc21 [Compound 130],19.6 ± 1.3,28.5 ± 1.6,–,–
CCN1C(=O)C(=C2Oc3ccc(Cl)cc3C2=NO)c2ccccc21 [Compound 43],42 ± 4.2,14 ± 1.7,–,–
COc1ccc2c(c1)C(=C1C(=O)N(Cc3ccccc3)c3ccccc31)C(=O)O2 [Compound 116],7.4 ± 1.7,3.7 ± 0.6,–,–
CC(C)N1C(=O)C(=C2Oc3ccc(Cl)cc3C2=O)c2cc(Cl)ccc21 [Compound 23],6.9 ± 0.8,3.1 ± 0.8,–,–
Cc1cccc2c1OC(=O)C2=C1C(=O)N(C)c2ncccc21 [Compound 140],7.3 ± 0.8,1.9 ± 0.8,–,–
CC(C)N1C(=O)C(=C2Oc3ccc(Cl)cc3C2=NO)c2ccc(Cl)cc21 [Compound 48],2.6 ± 0.4,1.9 ± 0.4,–,–
O=C1Nc2ccccc2C1=C1Oc2ccccc2C1=O [Compound 1],> 100,40 ± 1.4,–,–
O=C1Nc2nc(Cl)ccc2C1=C1C(=O)Oc2ccccc21 [Compound 138],25.8 ± 1.7,12.1 ± 1.4,–,–
CC(C)N1C(=O)C(=C2Oc3ccccc3C2=NO)c2ccc(Cl)cc21 [Compound 36],31.5 ± 1.8,10 ± 0.6,–,–

SMILES,IC50 [1] [µM],IC50 [2] [µM],IC50 ([1]; Homo sapiens) [µM],IC50 ([2]; Homo sapiens) [µM]
CC(C)N1C(=O)C(=C2Oc3ccc(Cl)cc3C2=O)c2ccc(Cl)cc21 [Compound 24],12.1 ± 0.9,3.8 ± 1.5,–,–
O=C1C(=C2C(=O)N(Cc3ccccc3)c3ccc(Cl)cc32)Oc2ccccc21 [Compound 16],61 ± 2.9,16 ± 2,–,–
Cc1ccc2c(c1)C(=C1Oc3ccccc3C1=O)C(=O)N2Cc1ccccc1 [Compound 17],25 ± 2.7,8 ± 2.3,–,–
O=C1C(=C2Oc3ccccc3C2=NO)c2cc(Cl)ccc2N1Cc1ccccc1 [Compound 40],> 100,14 ± 1.2,–,–
CC(C)N1C(=O)C(=C2Oc3ccccc3C2=NO)c2cc(Cl)ccc21 [Compound 47],1.6 ± 0.8,1.7 ± 0.8,–,–
CC(C)N1C(=O)C(=C2Oc3ccccc3C2=O)c2cnccc21 [Compound 66],1.8 ± 0.6,7.4 ± 1.7,–,–
O=C1Oc2ccccc2C1=C1C(=O)N(Cc2ccccc2)c2cc(Cl)ccc21 [Compound 120],43 ± 2.2,49.1 ± 2.6,–,–
CCCCN1C(=O)C(=C2Oc3ccccc3C2=O)c2cncc(F)c21 [Compound 70],3.6 ± 0.4,4.5 ± 0.6,–,–
CC(C)N1C(=O)C(=C2C(=O)Oc3ccccc32)c2ccccc21 [Compound 106],3.8 ± 1.5,35.5 ± 2.9,–,–
CCN1C(=O)C(=C2Oc3ccc(Cl)cc3C2=NO)c2ccc(Cl)cc21 [Compound 46],3.8 ± 0.5,3.4 ± 0.7,–,–
CCN1C(=O)C(=C2Oc3ccccc3C2=NO)c2ccccc21 [Compound 27],19 ± 1.1,7.1 ± 0.7,–,–
CC(C)N1C(=O)C(=C2C(=O)Oc3ccc(F)cc32)c2cccnc21 [Compound 150],5.6 ± 0.6,7.9 ± 1.3,–,–
CC(C)N1C(=O)C(=C2Oc3ccccc3C2=NO)c2cc(Cl)ccc21 [Compound 35],29.2 ± 1.4,17.5 ± 1.8,–,–
CON=C1C(=C2C(=O)N(C3OC(CO)C(O)C(O)C3O)c3ccc(Cl)cc32)Oc2ccccc21 (stereo not drawn) [Compound 53],16 ± 1.5,2.1 ± 0.5,–,–
CN1C(=O)C(=C2C(=O)Oc3ccccc32)c2cnccc21 [Compound 123],9.1 ± 1,5.8 ± 0.8,–,–
CCN1C(=O)C(=C2Oc3ccccc3C2=O)c2cccc(F)c21 [Compound 4],31.5 ± 2.9,9.5 ± 2.1,–,–
O=C1Oc2ccccc2C1=C1C(=O)N(Cc2ccccc2)c2ncccc21 [Compound 152],42.3 ± 1.8,18.2 ± 1.2,–,–
CCN1C(=O)C(=C2Oc3ccccc3C2=O)c2cc(Cl)ccc21 [Compound 5],87 ± 2.1,11.5 ± 1,–,–
CC(C)N1C(=O)C(=C2Oc3ccccc3C2=NO)c2cc(Cl)cnc21 [Compound 88],80.1 ± 1.5,87 ± 2.1,–,–
CCN1C(=O)C(=C2Oc3ccccc3C2=NO)c2ccc(Cl)cc21 [Compound 30],3 ± 0.5,3.8 ± 0.5,–,–
CN1C(=O)C(=C2C(=O)Oc3ccccc32)c2ccc(Cl)cc21 [Compound 96],14.2 ± 1.3,17.2 ± 1.6,–,–
